The values that follow come from article PMC5651844, “YEATS2 links histone acetylation to tumorigenesis of non-small cell lung cancer” (Nature Communications, 2017).

“And” between values parts separate entries of the source, which are not always exact repeats. Identical values can stand only once. “Also recorded” adds a separate entry of the source. Ends that are not written are not given here.

In assay [1] the test system is GST-YEATS2 YEATS domain. Nature of the assay: Histone peptide pulldown, western blot. In kind it is binding, human. As to conditions: 1 µg biotinylated peptide, 1–2 µg GST-fused protein, 4 °C overnight, streptavidin beads. How it is done: An aliquot of 1 µg of biotinylated histone peptides with different modifications were incubated with 1–2 µg of GST-fused proteins in binding buffer (50 mM Tris-HCl 7.5, 250 mM NaCl, 0.1% NP-40, 1 mM phenylmethyl sulphonyl fluoride (PMSF)) at 4 °C overnight. Streptavidin beads (Amersham) were added to the mixture, and the mixture was incubated for 1 h with rotation. The beads were then washed three times and analyzed using SDS-PAGE and western blotting. For GST pulldown, 2 µg protein were incubated with 10 µg of calf thymus total histones (Worthington) in binding buffer (50 mM Tris-HCl 7.5, 1 M NaCl, 1% NP-40, 0.5 mM EDTA, 1 mM PMSF plus protease inhibitors (Roche)) at 4 °C overnight, followed by an additional 1 h Glutathione Sepharose beads (Amersham) incubation. The beads were then washed five times and analyzed using SDS-PAGE and western blotting.
In general terms: Immunoblotting shows a protein as a band on a membrane.

For assay [2], the target named is ENL YEATS domain. As to conditions: ref Wan et al., 2017; cited from earlier work.
Assay [3] deals with T1, YEATS2 YEATS domain (aa 201–332), wild type (Homo sapiens, UniProt Q9ULM3).
T1 construct: encompassing residues 201–332 of human YEATS2; 10×His-SUMO (N, cleaved yes); made in house; host or cells: Escherichia coli BL21 (DE3)
T1 sequence (Q9ULM3 201-332): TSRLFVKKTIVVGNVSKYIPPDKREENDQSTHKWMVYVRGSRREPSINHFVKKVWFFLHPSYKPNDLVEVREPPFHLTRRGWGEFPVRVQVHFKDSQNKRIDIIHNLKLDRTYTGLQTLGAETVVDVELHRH
Nature of the assay: Isothermal titration calorimetry (ITC), wild-type YEATS domain. In kind it is binding. The conditions noted are these: for binding in ITC, in words: WT YEATS2 YEATS domain. How it is done: The YEATS2 domain encompassing residues 201–332 of human YEATS2 was cloned into a pSUMOH10 vector (an in house modified vector based on pET28b) containing an N-terminal 10×His-SUMO tag. The recombinant YEATS2_201–332 was overexpressed in Escherichia coli BL21 (DE3). After overnight induction by 0.4 mM isopropyl β-D-thiogalactoside at 16 °C in TB medium, cells were collected and suspended in buffer: 20 mM Tris, pH 7.5, 0.5 M sodium citrate, 5% glycerol, 1 mM phenylmethylsulfonyl fluoride, and 20 mM imidazole. After cell lysis and centrifugation, the recombinant protein was purified to homogeneity over HisTrap, and the 10xHis-SUMO tag was cleaved by ULP1 overnight at 4 °C then removed by reloaded onto the HisTrap column. The free YEATS2_201–332 protein was finally polished by size-exclusion chromatography on a Superdex G75 column (GE Healthcare) in elution buffer: 20 mM Tris, pH 7.5, 0.5 M sodium citrate, 5% glycerol, and 2 mM β-mercaptoethanol. All YEATS2_201–332 mutants were purified in essentially the same procedures as the wild-type protein. All mutant proteins were expressed and purified essentially the same as WT YEATS2 YEATS. […] Cells were pelleted via centrifugation, flash-frozen in liquid nitrogen, and lysed by sonication. Cell lysate was centrifuged, and the supernatant was incubated with glutathione Sepharose 4B beads (GE Healthcare). The GST tag was cleaved with Prescission protease.
All calorimetric experiments of the wild type or mutant YEATS domain proteins were conducted at 15 °C using a MicroCal iTC200 instrument (GE Healthcare). The YEATS2_201–332 samples were dialyzed in the following buffer: 20 mM Tris 7.5, 0.5 M sodium citrate, 5% glycerol, and 2 mM β-mercaptoethanol. Protein concentration was determined by absorbance spectroscopy at 280 nm. Peptides (>95% purity) were quantified by weighing on a large scale and then aliquoted and freeze-dried for individual use. Acquired calorimetric titration curves were analyzed using Origin 7.0 (OriginLab) using the “One Set of Binding Sites” fitting model.
(ITC needs no label: the signal is the heat of the interaction.)

The test system of assay [4] is 15N-labeled YEATS domain of YEATS2 (aa 201–350). Nature of the assay: NMR titration, 1H,15N HSQC. Type of assay: binding, human. The conditions noted are these: 0.1 mM 15N-labeled YEATS domain, 1× PBS pH 6.8, 100 mM KCl, 298 K, increasing peptide (H3K27ac21–31 or H3K9ac1–12). How it is done:
The YEATS2 domain encompassing residues 201–332 of human YEATS2 was cloned into a pSUMOH10 vector (an in house modified vector based on pET28b) containing an N-terminal 10×His-SUMO tag. The recombinant YEATS2_201–332 was overexpressed in Escherichia coli BL21 (DE3). After overnight induction by 0.4 mM isopropyl β-D-thiogalactoside at 16 °C in TB medium, cells were collected and suspended in buffer: 20 mM Tris, pH 7.5, 0.5 M sodium citrate, 5% glycerol, 1 mM phenylmethylsulfonyl fluoride, and 20 mM imidazole. After cell lysis and centrifugation, the recombinant protein was purified to homogeneity over HisTrap, and the 10xHis-SUMO tag was cleaved by ULP1 overnight at 4 °C then removed by reloaded onto the HisTrap column. The free YEATS2_201–332 protein was finally polished by size-exclusion chromatography on a Superdex G75 column (GE Healthcare) in elution buffer: 20 mM Tris, pH 7.5, 0.5 M sodium citrate, 5% glycerol, and 2 mM β-mercaptoethanol. All YEATS2_201–332 mutants were purified in essentially the same procedures as the wild-type protein. All mutant proteins were expressed and purified essentially the same as WT YEATS2 YEATS. For NMR titrations, the YEATS domain (aa 201–350) of YEATS2 was expressed in BL21(DE3) RIL cells as a GST-fusion protein in minimal media supplemented with ^15NH4Cl (Sigma). […]

Assay [5] deals with AF9 YEATS domain. As to conditions: ref Li et al., 2014; cited from earlier work.

On to “H3K27ac: K27-acetylated H3 peptide: ITC text = H3 15–39K27ac; NMR = H3K27ac21–31; pulldown = biotinylated peptide; cited AF9/ENL peptides unspecified (ATKAARK(Ac)SAPA)”, for which, in assay [1], the “binding in histone peptide pulldown” value is “bound specifically”. Also, the Kd in assay [2] was 30 µM; in assay [3] (main text and Fig. 3e, ITC at 15 °C, N.D. = not detected, read-out: dissociation constant (KD)), 50 µM; in assay [5], ~7 µM and 7 µM. Besides, the “binding in ITC, in words” value in assay [3] is “best binding substrate”. Moreover, the “chemical shift perturbations in 1H,15N HSQC spectra” value in assay [4] is given as “global chemical shift perturbations”.

On to “TARKSTGGK(ac)A [H36-15K14ac, histone H3 peptide, residues 6-15, acetylated at K14]”, for which, in assay [3] (listed as H3K14ac), the “binding in ITC, in words” value was “weak or no binding; also recorded: no detectable binding”.

A word on the Kd: it is the concentration at which binding is half-saturated.
